Assay results taken from patent publication US20250034136A1 (Nimbus Wadjet, Inc., priority 2023, published 2025).
pEC50, pIC50: −log10 of the molar value.

What was measured:
[1] = target: WRN (BV08), human Werner helicase (Uniprot Q14191, amino acids 517-1235 with L1074F point mutation) (Homo sapiens (Human), UniProt Q14191, L1074F); assay: WRN (BV08) ADP-Glo assay; format: biochemical; settings: class symbols A-E, read-out: ADP-Glo_hWRN_IC50
[2] = system: p21 induction in HCT116 cells; assay: p21 induction in HCT116 cells; format: cell-based; settings: Homo sapiens, HCT-116, 24 h, HCT116 cells, 24 h compound incubation; read-out: P21_EC50
How it was run: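 EC50 from non-linear curve fit of p21 immunofluorescence (800 nm), with GAPDH (700 nm) read alongside. DMSO and a reference WRN inhibitor served as low and high controls. Cells (2,000/well) got 11 compound concentrations in duplicate for 24 h at 37 °C.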

WRN (BV08), human Werner helicase (Uniprot Q14191, amino acids 517-1235 with L1074F point mutation), sequence (Q14191 other isoform, or with tags, fused parts or gaps L1074F (already in the parent)): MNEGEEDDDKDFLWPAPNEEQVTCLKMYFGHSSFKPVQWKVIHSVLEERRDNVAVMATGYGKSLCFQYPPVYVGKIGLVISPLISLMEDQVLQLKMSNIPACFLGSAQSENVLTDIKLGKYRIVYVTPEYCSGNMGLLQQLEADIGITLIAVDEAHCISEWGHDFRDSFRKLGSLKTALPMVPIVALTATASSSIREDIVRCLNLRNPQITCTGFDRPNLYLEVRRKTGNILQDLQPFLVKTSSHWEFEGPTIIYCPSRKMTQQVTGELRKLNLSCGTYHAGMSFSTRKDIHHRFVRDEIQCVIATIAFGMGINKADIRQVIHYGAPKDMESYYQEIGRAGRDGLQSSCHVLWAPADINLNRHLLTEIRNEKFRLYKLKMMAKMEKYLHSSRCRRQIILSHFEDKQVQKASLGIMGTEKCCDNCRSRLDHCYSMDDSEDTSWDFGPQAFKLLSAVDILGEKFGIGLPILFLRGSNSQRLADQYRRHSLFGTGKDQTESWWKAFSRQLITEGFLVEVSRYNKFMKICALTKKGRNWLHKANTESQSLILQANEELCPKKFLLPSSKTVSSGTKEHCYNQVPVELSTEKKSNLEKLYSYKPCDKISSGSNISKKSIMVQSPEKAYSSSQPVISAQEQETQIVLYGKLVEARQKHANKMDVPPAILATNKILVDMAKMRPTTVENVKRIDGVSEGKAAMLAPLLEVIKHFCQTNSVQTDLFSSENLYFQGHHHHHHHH

SMILES | pIC50 [1] | pEC50 [2]
CCc1c(N2CCN(C(=O)c3c(OC)ncc(C)c3O)CC2)c(=O)c2nc(N(C)C)cnc2n1CC(=O)Nc1ccc(C(F)(F)F)cc1Cl [I-204, N-[2-chloro-4-(trifluoromethyl)phenyl]-2-[2-(dimethylamino)-6-ethyl-7-[4-(4-hydroxy-2-methoxy-5-methylpyridine-3-carbonyl)piperazin-1-yl]-8-oxo-5H,8H-pyrido[2,3-b]pyrazin-5-yl]acetamide] | 7.30 to 8.30 | > 6.30
CCc1c(N2C[C@H]3CC[C@@H](C2)N3C(=O)c2ncnc(C)c2O)c(=O)c2nc(N(C)C)cnc2n1CC(=O)Nc1ccc(C(F)(F)F)cc1Cl [I-206, N-[2-chloro-4-(trifluoromethyl)phenyl]-2-[2-(dimethylamino)-6-ethyl-7-[(1R,5S)-8-(5-hydroxy-6-methylpyrimidine-4-carbonyl)-3,8-diazabicyclo[3.2.1]octan-3-yl]-8-oxo-5H,8H-pyrido[2,3-b]pyrazin-5-yl]acetamide] | 7.30 to 8.30 | < 5.30
CCc1c(N2CCN(C(=O)c3ncnc(C)c3O)[C@H]3CC[C@@H]32)c(=O)c2nc(N(C)C)cnc2n1CC(=O)Nc1ccc(OC(F)(F)F)cc1F [I-210, 2-[2-(dimethylamino)-6-ethyl-7-[(1S,6S)-5-(5-hydroxy-6-methylpyrimidine-4-carbonyl)-2,5-diazabicyclo[4.2.0]octan-2-yl]-8-oxo-5H,8H-pyrido[2,3-b]pyrazin-5-yl]-N-[2-fluoro-4-(trifluoromethoxy)phenyl]acetamide] | 7.30 to 8.30 | > 6.30
[2H]C([2H])([2H])N(c1nc2c(=O)c(N3CCN(C(=O)c4ncnc(C)c4O)[C@H]4CC[C@@H]43)c(CC)n(CC(=O)Nc3ccc(C(F)(F)F)cc3F)c2nc1C)C([2H])([2H])[2H] [I-211] | 7.30 to 8.30 | > 6.30
CCc1c(C2=CCN(C(=O)c3ncnc(C)c3O)CC2)c(=O)c2nc(N(C)C)cnc2n1CC(=O)Nc1ccc(C(F)(F)F)cc1Cl [I-213, N-[2-chloro-4-(trifluoromethyl)phenyl]-2-[2-(dimethylamino)-6-ethyl-7-[1-(5-hydroxy-6-methylpyrimidine-4-carbonyl)-1,2,3,6-tetrahydropyridin-4-yl]-8-oxo-5H,8H-pyrido[2,3-b]pyrazin-5-yl]acetamide] | 7.30 to 8.30 | 5.70 to 6.30
[2H]C([2H])([2H])N(c1cnc2c(n1)c(=O)c(N1CCN(C(=O)c3ncnc(C)c3O)[C@H]3CC[C@@H]31)c(CC)n2CC(=O)Nc1ccc(C(F)(F)F)cc1F)C([2H])([2H])[2H] [I-214, 2-{2-[di(2H3)methylamino]-6-ethyl-7-[(1S,6S)-5-(5-hydroxy-6-methylpyrimidine-4-carbonyl)-2,5-diazabicyclo[4.2.0]octan-2-yl]-8-oxo-5H,8H-pyrido[2,3-b]pyrazin-5-yl}-N-[2-fluoro-4-(trifluoromethyl)phenyl]acetamide] | 7.30 to 8.30 | > 6.30
CCc1c(N2CCN(C(=O)c3ncnc(C)c3O)[C@@H]3CCC[C@H]32)c(=O)c2nc(N(C)C)cnc2n1CC(=O)Nc1ccc(C(F)(F)F)cc1Cl [I-215, 2-{7-[(4aR,7aR)-4-(5-hydroxy-6-methylpyrimidine-4-carbonyl)-octahydro-1H-cyclopenta[b]pyrazin-1-yl]-2-(dimethylamino)-6-ethyl-8-oxo-5H,8H-pyrido[2,3-b]pyrazin-5-yl}-N-[2-chloro-4-(trifluoromethyl)phenyl]acetamide] | 6.30 to 7.00 | < 5.30
CCc1c(N2CCN(C(=O)c3ncnc(C)c3O)C3(CCC3)C2)c(=O)c2nc(N(C)C)cnc2n1CC(=O)Nc1ccc(C(F)(F)F)cc1Cl [I-216, N-[2-chloro-4-(trifluoromethyl)phenyl]-2-[2-(dimethylamino)-6-ethyl-7-[5-(5-hydroxy-6-methylpyrimidine-4-carbonyl)-5,8-diazaspiro[3.5]nonan-8-yl]-8-oxo-5H,8H-pyrido[2,3-b]pyrazin-5-yl]acetamide] | 7.00 to 7.30 | < 5.30
CCc1c(N2CCN(C(=O)c3ncnc(C)c3O)CC2)c(=O)c2nc(N(C)S(C)(=O)=O)cnc2n1CC(=O)Nc1ccc(C(F)(F)F)cc1Cl [I-217, N-[2-chloro-4-(trifluoromethyl)phenyl]-2-{6-ethyl-7-[4-(5-hydroxy-6-methylpyrimidine-4-carbonyl)piperazin-1-yl]-2-(N-methylmethanesulfonamido)-8-oxo-5H,8H-pyrido[2,3-b]pyrazin-5-yl}acetamide] | 6.30 to 7.00 | < 5.30
CCc1c(C2CCN(C(=O)c3ncnc(C)c3O)CC2)c(=O)c2nc(N(C)C)cnc2n1CC(=O)Nc1ccc(C(F)(F)F)cc1Cl [I-221, N-[2-chloro-4-(trifluoromethyl)phenyl]-2-[2-(dimethylamino)-6-ethyl-7-[1-(5-hydroxy-6-methylpyrimidine-4-carbonyl)piperidin-4-yl]-8-oxo-5H,8H-pyrido[2,3-b]pyrazin-5-yl]acetamide] | 7.30 to 8.30 | < 5.30
CCc1c(N2CCN(C(=O)c3ncnc(C)c3O)[C@H]3CC[C@@H]32)c(=O)c2nc(N(C)C)cnc2n1CC(=O)Nc1ccc(C(F)(F)F)nc1Cl [I-222, N-[2-chloro-6-(trifluoromethyl)pyridin-3-yl]-2-[2-(dimethylamino)-6-ethyl-7-[(1S,6S)-5-(5-hydroxy-6-methylpyrimidine-4-carbonyl)-2,5-diazabicyclo[4.2.0]octan-2-yl]-8-oxo-5H,8H-pyrido[2,3-b]pyrazin-5-yl]acetamide] | 7.30 to 8.30 | > 6.30
CCc1c(N2CCN(C(=O)c3ncnc(C)c3O)CC2)c(=O)c2nc(C3CCC3)cnc2n1CC(=O)Nc1ccc(C(F)(F)F)cc1Cl [I-223, N-[2-chloro-4-(trifluoromethyl)phenyl]-2-{2-cyclobutyl-6-ethyl-7-[4-(5-hydroxy-6-methylpyrimidine-4-carbonyl)piperazin-1-yl]-8-oxo-5H,8H-pyrido[2,3-b]pyrazin-5-yl} acetamide] | 7.30 to 8.30 | 5.70 to 6.30
CCc1c(N2CCN(C(=O)c3c(OC)ncc(C)c3O)C[C@@H]2C)c(=O)c2nc(C3CC3)cnc2n1CC(=O)Nc1ccc(C(F)(F)F)cc1Cl [I-225, N-[2-chloro-4-(trifluoromethyl)phenyl]-2-{2-cyclopropyl-6-ethyl-7-[(2S)-4-(4-hydroxy-2-methoxy-5-methylpyridine-3-carbonyl)-2-methylpiperazin-1-yl]-8-oxo-5H,8H-pyrido[2,3-b]pyrazin-5-yl}acetamide] | 7.30 to 8.30 | > 6.30

Now from value to compound:

pIC50 [1] | pEC50 [2] | SMILES
7.30 to 8.30 | 5.30 to 5.70 | CCc1c(N2CCN(C(=O)c3ncnc(C)c3O)CC2)c(=O)c2nc(-n3cccn3)cnc2n1CC(=O)Nc1ccc(C(F)(F)F)cc1Cl [I-201, N-[2-chloro-4-(trifluoromethyl)phenyl]-2-{6-ethyl-7-[4-(5-hydroxy-6-methylpyrimidine-4-carbonyl)piperazin-1-yl]-8-oxo-2-(1H-pyrazol-1-yl)-5H,8H-pyrido[2,3-b]pyrazin-5-yl}acetamide]
≥ 8.30 | 5.70 to 6.30 | CCc1c(N2CCN(C(=O)c3ncc4c(c3O)OCC4)CC2)c(=O)c2nc(N(C)C3CC3)cnc2n1CC(=O)Nc1ccc(C(F)(F)F)cc1Cl [I-203, N-[2-chloro-4-(trifluoromethyl)phenyl]-2-{2-[cyclopropyl(methyl)amino]-6-ethyl-7-(4-{7-hydroxy-2H,3H-furo[3,2-c]pyridine-6-carbonyl}piperazin-1-yl)-8-oxo-5H,8H-pyrido[2,3-b]pyrazin-5-yl}acetamide]
7.30 to 8.30 | > 6.30 | CCc1c(N2CCN(C(=O)c3ncnc(C)c3O)CC2)c(=O)c2nc(N(C)C3(C)CC3)cnc2n1CC(=O)Nc1ccc(C(F)(F)F)cc1Cl [I-205, N-[2-chloro-4-(trifluoromethyl)phenyl]-2-{6-ethyl-7-[4-(5-hydroxy-6-methylpyrimidine-4-carbonyl)piperazin-1-yl]-2-[methyl(1-methylcyclopropyl)amino]-8-oxo-5H,8H-pyrido[2,3-b]pyrazin-5-yl}acetamide]
7.30 to 8.30 | 5.30 to 5.70 | CCc1c(N2CCN(C(=O)c3ncnc(C)c3O)CC2)c(=O)c2nc(N3CCC34COC4)cnc2n1CC(=O)Nc1ccc(C(F)(F)F)cc1Cl [I-207, N-[2-chloro-4-(trifluoromethyl)phenyl]-2-{6-ethyl-7-[4-(5-hydroxy-6-methylpyrimidine-4-carbonyl)piperazin-1-yl]-2-{6-oxa-1-azaspiro[3.3]heptan-1-yl}-8-oxo-5H,8H-pyrido[2,3-b]pyrazin-5-yl}acetamide]
7.30 to 8.30 | 5.70 to 6.30 | CCc1c(N2CCN(C(=O)c3nccc(F)c3O)CC2)c(=O)c2nc(N(C)C)cnc2n1CC(=O)Nc1ccc(C(F)(F)F)cc1Cl [I-212, N-[2-chloro-4-(trifluoromethyl)phenyl]-2-[2-(dimethylamino)-6-ethyl-7-[4-(4-fluoro-3-hydroxypyridine-2-carbonyl)piperazin-1-yl]-8-oxo-5H,8H-pyrido[2,3-b]pyrazin-5-yl]acetamide]
≥ 8.30 | 5.70 to 6.30 | CCc1c(N2CCN(C(=O)c3nccc(Cl)c3O)CC2)c(=O)c2nc(N(C)C)cnc2n1CC(=O)Nc1ccc(C(F)(F)F)cc1Cl [I-218, 2-{7-[4-(4-chloro-3-hydroxypyridine-2-carbonyl)piperazin-1-yl]-2-(dimethylamino)-6-ethyl-8-oxo-5H,8H-pyrido[2,3-b]pyrazin-5-yl}-N-[2-chloro-4-(trifluoromethyl)phenyl]acetamide]
7.30 to 8.30 | 5.30 to 5.70 | CCc1c(N2CCN(C(=O)c3ncnc(C)c3O)CC2)c(=O)c2nc(N3CCCC34CC4)cnc2n1CC(=O)Nc1ccc(C(F)(F)F)cc1Cl [I-224, 2-(2-{4-azaspiro[2.4]heptan-4-yl}-6-ethyl-7-[4-(5-hydroxy-6-methylpyrimidine-4-carbonyl)piperazin-1-yl]-8-oxo-5H,8H-pyrido[2,3-b]pyrazin-5-yl)-N-[2-chloro-4-(trifluoromethyl)phenyl]acetamide]
